In patent US20040248898A1, “Remedies for arteriosclerosis” (priority 2001, published 2004):
Like-named read-outs stand apart in the source and are kept apart here.

Tests used:
[1] = test system: mouse peritoneal macrophages; test: Uptake of LDL into mouse peritoneal macrophages induced by group X sPLA2 (Oil Red O stain); format: cell-based; conditions: agent 10 μmol/L; 0.2 mg/ml LDL, 50 nmol/L group X sPLA2, 48 hours
Method: C57BL/6J mice (male, 8 weeks) were injected peritoneally with 2 ml of a 4% thioglycollate solution, and, 4 days later, the cells from the peritoneal fluids were harvested. The cells were plated on a chamber slide, and incubated for 2 hours in the presence of the serum-free medium (BIO […]: X-VIVO 15). Then, non-adherent cells were removed by the washing procedure to prepare peritoneal macrophages. The cells were added with 0.2 mg/ml LDL (Sigma) and 50 nmol/L group X PLA2, and incubated in the serum-free medium for 48 hours. Uptake of LDL into macrophages were confirmed by immobilizing the cells with 4% formaldehyde for 20 minutes, and then staining the lipids with an Oil Red O stain solution.

human group V sPLA2 [2] = target: T1, human group V sPLA2 (Homo sapiens, UniProt P39877); test: Chromogenic assay for inhibitory activity, group V sPLA2 inhibition tests; format: biochemical
T1 construct: made in house; host or cells: CHO cells, stably transfected (pSVL vector); culture supernatant used
T1 sequence (P39877 21-138): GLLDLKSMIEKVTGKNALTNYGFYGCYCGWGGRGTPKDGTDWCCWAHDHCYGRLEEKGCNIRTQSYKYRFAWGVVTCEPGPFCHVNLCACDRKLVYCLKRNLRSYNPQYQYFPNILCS
Text: (§1) A. Preparation of Cells Expressing Human Group V or X sPLA2 and Preparation of the Culture Supernatant Thereof
(§2) cDNA sequence encoding human group V or X sPLA2 (Chen et al., J. Biol. Chem, 1994, 269, 2365-2368; and Cupillard et al., J. Biol. Chem, 1997, 272, 15745-15752) was inserted in forward direction downstream the promoter of an expression vector for mammal cells, pSVL SV40 Late Promoter Expression Vector (Amersham Pharmacia Biotech). The expression vector was transfected into CHO host cells using a Lipofect AMINE regent (Gibco BRL) according to the instructions of the manufacturer to provide CHO cells stably expressing human group V or X sPLA2. The cells were incubated in a-MEM medium containing 10% fetal calf serum for 3 days, and the culture supernatant was used to determine the activity of the enzymes.
(§3) B. Assay for Inhibitory Activity
(§4) The following chromogenic assay is used to identify and evaluate inhibitors of group V or X sPLA2. The assay has been adapted for high volume screening using 96 well microtiter plates. A general description of this assay is found in the article, “Analysis of Human Synovial Fluid Phospholipase A2 on Short Chain Phosphatidylcholine-Mixed Micelles: Development of a Spectrophotometric Assay Suitable for a Microtiterplate Reader”, by Laure. J. Reynolds, Lori L. Hughes and Edward A Dennis, Analytical Biochemistry, 204, pp 190-197, 1992.
(§5) A test compound (or a solvent blank) was added according to the predetermined arrangement of the plate, and diheptanoyl thio PC (1 mM) was reacted with human group V or X sPLA2 in the presence of Triton X-100 (0.3 mM), 5,5′-dithiobis-(2-nitrobenzoic acid) (125 μM) in a Tris buffer (25mM, pH7.3), CaCl2 (10 mM), KCl (100 mM), bovine serum albumin. Absorbance at 405 nm is read to estimate the inhibitory activity.
(§6) The reaction with human group V sPLA2 was performed in 40 μl/well at 40° C. for 45 minutes, and the reaction with human group X sPLA2 was performed in 15 μl/well at 40° C. for 30 minutes.

human group X sPLA2 [3] = target: T2, human group X sPLA2 (Homo sapiens, UniProt O15496); test: Negative charge of isolated human lipoproteins (agarose gel electrophoresis) after group X sPLA2; format: biochemical; conditions: agent 10 μmol/L; LDL and HDL, 50 nmol/L sPLA2
T2 sequence (O15496 43-165): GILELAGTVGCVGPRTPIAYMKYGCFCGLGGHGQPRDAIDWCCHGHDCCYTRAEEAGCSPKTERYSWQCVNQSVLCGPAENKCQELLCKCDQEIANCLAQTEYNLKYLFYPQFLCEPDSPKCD
Method: LDL and HDL were isolated from human plasma by ultracentrifugation (Havel, et al., J. Clin. Invest. 34, 1345-1353 (1955)). Human group IB, IIA and X sPLA2s (50 nmol/L) and CuSO4 (20 μmol/L) were reacted with LDL and HDL (1 mg/ml) at 37° C. for 3, 6, and 24 hours in a solution containing 12.5 mmol/L Tris-HCL buffer (pH 8.0), 125 mg/L bovine serum albumin, and 1 mmol/L calcium chloride. Then, a 1 μg sample of LDL and a 2 μg sample of HDL were electrophoresed on agarose gel (Helena Laboratories, TITAN GEL Lipoprotein; 90V, 25 minutes). After the electrophoresis, the gel was dried at 50 to 60° C. for about 1 hour, stained with 6 ml of a stain solution (Helena Laboratories, Fat Red 7B agarose solution) for about 3 minutes, and then decolorized with 25 ml of a decolorizing solution (70% methanol). In the experiment for determining the activity of a sPLA2 inhibitor (indoxam), a COX inhibitor (indomethacin) or a 5-LOX inhibitor (AA-861), those agents were added to the reaction giving a final concentration of 10 μmol/L, virtually simultaneously with the addition of sPLA2.

human group V sPLA2 [4] = target: T1, human group V sPLA2; test: Degeneration (negative charge, agarose gel electrophoresis) of isolated human lipoproteins by group V sPLA2; format: biochemical; conditions: agent 10 μmol/L; LDL and HDL, 50 nmol/L sPLA2
Method: LDL and HDL were isolated from human plasma by ultracentrifugation (Havel, et al., J. Clin. Invest. 34, 1345-1353 (1955)). Human group IIA and V sPLA2s (50 nmol/L) were reacted with LDL and HDL (1 mg/ml) at 37° C. for 3, 6, and 24 hours in a solution containing 12.5 mmol/L Tris-HCL buffer (pH 8.0), 125 mg/L bovine serum albumin, and 1 mmol/L calcium chloride, and then 1 μg of the LDL and 2 μg of the HDL were spotted on an agarose gel (Helena Laboratories, TITAN GEL Lipoprotein), followed by being electrophoresed at 90V for 25 minutes. After the electrophoresis, the gels were dried at 50 to 60° C. for about one hour, stained with 6 ml of a stain solution (Helena Laboratories, Fat Red 7B agarose solution) for about three minutes, and then decolorized with 25 ml of a decolorizing solution (70% methanol).

human group X sPLA2 [5] = target: T2, human group X sPLA2; test: Fatty acid release from isolated human lipoproteins induced by group X sPLA2; format: biochemical; conditions: agent 10 μmol/L, added with sPLA2; arachidonic acid from LDL (FIG. 2)
Method: LDL and HDL were isolated from human plasma by ultracentrifugation (Havel, et al., J. Clin. Invest. 34, 1345-1353 (1955)). Human group IB, IIA and X sPLA2s (0.5 nmol/L to 500 nmol/L) were reacted with LDL and HDL (0.35-1 mg/ml) at 37° C. in a solution containing 12.5 mmol/L Tris-HCL buffer (pH 8.0), 125 mg/L bovine serum albumin, and 1 mmol/L calcium chloride. The fatty acids released from the lipoproteins were extracted according to the method of Dole (Dole, et al., J. Biol. Chem. 235, 2595-2599 (1960)), and were labeled with 9-anthryldiazomethane by the known method (Hanasaki, et al., J. Biol. Chem. 274, 34203-34211 (1999)). Then, the released fatty acids were determined by detecting fluorescence of the labeled products (fatty acids) eluted from high performance liquid chromatography (HPLC) on reverse-phase column (LichroCART 125-4 Superspher 100 RP-18 columnmol/Merck). In order to examine does-dependent release of fatty acids induced by each sPLA2, the lipoprotein was reacted with 0.5, 5, 50, and 500 nmol/L group X sPLA2, and 50 and 500 nmol/L group IB and IIA sPLA2 for 60 minutes. Further, in order to examine time-dependent fatty acid release induced by sPLA2, each 50 nmol/L sPLA2 was used, and the change in the release with time course was traced during the period time of 4 hours after the sPLA2 addition. In the experiment for determining the inhibitory activity of a sPLA2 inhibitor (indoxam; Yokota, et al., Biochim. Biophys. Acta 1438, 213-222 (1999)), a cyclooxygenase (COX) inhibitor (indomethacin) or a 5-lipoxygenase (5-LOX) inhibitor (AA-861; 2,3,5-trimethyl-6-(12-hydroxy-5,10-dodecadiynyl)-1,4-benzoquinone (Yoshimoto, et al., Biochem. Biophys. Acta. 713, 470-473 (1982)), those agents were added to the reaction giving a final concentration of 10 μmol/L, virtually simultaneously with the addition of sPLA2.

human group V sPLA2 [6] = target: T1, human group V sPLA2; test: Fatty acid (linoleic acid) release from isolated human lipoproteins induced by group V sPLA2; format: biochemical; conditions: agent 10 μmol/L; from LDL (FIG. 8)
Method: LDL and HDL were isolated from human plasma by ultracentrifugation (Havel, et al., J. Clin. Invest. 34, 1345-1353 (1955)). […] Biol. Chem. 235, 2595-2599 (1960)). The fatty acids were labeled with 9-anthryldiazomethane by the known method ([…], et al., J. Biol. Chem. 274, 34203-34211 (1999)), and then were determined by detecting fluorescence of the labeled products (fatty acids) eluted from high performance liquid chromatography (HPLC) on reverse-phase column (LichroCART 125-4 Superspher 100 RP-18 column, Merck).

human group X sPLA2 [7] = target: T2, human group X sPLA2; test: Chromogenic assay for inhibitory activity, group X sPLA2 inhibition tests; format: biochemical; set-up: made in house; host or cells: CHO cells, stably transfected (pSVL vector); culture supernatant used
Text: as §1, §2, §3, §4, §5, §6

[8] = diheptanoyl thio PC 1 mM, 40° C., 45 minutes, absorbance at 405 nm, read-out: IC50 group V sPLA2 inhibition
[9] = diheptanoyl thio PC 1 mM, 40° C., 30 minutes, absorbance at 405 nm, read-out: IC50 group X sPLA2 inhibition

Row | SMILES | IC50 (human group V sPLA2 [2]; [8]) [nM] | IC50 (human group X sPLA2 [7]; [9]) [nM] | further results
1 | CC(Cc1ccc(O)c(O)c1)C(C)Cc1ccc(O)c(O)c1 (stereo not shown) [NDGA] |  |  | Effect on group X sPLA2-induced uptake of LDL into the cells [1]: affected neither
2 | CCc1c(C(=O)C(N)=O)c2c(OCC(=O)O)nc(C)cn2c1Cc1ccccc1-c1ccc(C)s1 [Compound 22] | 13 |  | 
3 | CCc1c(C(=O)C(N)=O)c2c(OCC(=O)O)nc(C)cn2c1Cc1ccccc1CC1CCCCC1 [Compound 20] | 11 |  | 
4 | CCc1c(C(=O)C(N)=O)c2c(OCC(=O)O)nc(C)cn2c1Cc1cccc(-c2ccccc2)c1 [Compound 1] | 12 |  | 
5 | NC(=O)c1cccc2c1c1c(OCC(=O)O)cc(-c3ccco3)cc1n2Cc1ccccc1 [Compound 11] | 2 |  | 
6 | CCc1c(C(=O)C(N)=O)c2c(OCC(=O)O)cccn2c1Cc1ccccc1-c1ccccc1 [indoxam] |  |  | Effect on group X sPLA2-induced uptake of LDL into the cells [1]: inhibited; Effect on lipoprotein degeneration (increase in negative charge) induced by group X sPLA2 (human group X sPLA2 [3]): inhibited; Effect on lipoprotein degeneration induced by group V sPLA2 (human group V sPLA2 [4]): inhibited; Effect on fatty acid release induced by group X sPLA2 (human group X sPLA2 [5]): inhibited; Effect on linoleic acid release induced by group V sPLA2 (human group V sPLA2 [6]): inhibited
7 | CCc1c(C(=O)C(N)=O)c2c(OCC(=O)O)cccc2n1Cc1ccccc1-c1ccccc1 [Compound 19] |  |  | IC50 (human group X sPLA2 [7]): 26 nM; IC50 (human group V sPLA2 [2]): 6 nM
8 | CCc1c(C(=O)C(N)=O)c2c(OCC(=O)O)nc(C)cn2c1Cc1ccccc1Cc1ccccc1 [Compound 2] | 13 |  | 
9 | NC(=O)c1cccc2c1c1c(OCC(=O)O)cccc1n2Cc1cccc(Oc2ccccc2)c1 [Compound 9] | 1 | 13 | 
10 | NC(=O)c1cccc2c1c1c(OCC(=O)O)cccc1n2Cc1ccccc1 [Compound 23] | 8 |  | 
11 | CC1=C(C)C(=O)C(CCCCC#CCCCC#CCO)=C(C)C1=O [AA-861, 2,3,5-trimethyl-6-(12-hydroxy-5,10-dodecadiynyl)-1,4-benzoquinone] |  |  | Effect on lipoprotein degeneration (increase in negative charge) induced by group X sPLA2 (human group X sPLA2 [3]): affected neither; Effect on fatty acid release induced by group X sPLA2 (human group X sPLA2 [5]): affected neither
12 | COc1ccc2c(c1)c(CC(=O)O)c(C)n2C(=O)c1ccc(Cl)cc1 [indomethacin] |  |  | Effect on group X sPLA2-induced uptake of LDL into the cells [1]: affected neither; Effect on lipoprotein degeneration (increase in negative charge) induced by group X sPLA2 (human group X sPLA2 [3]): affected neither; Effect on lipoprotein degeneration induced by group V sPLA2 (human group V sPLA2 [4]): not affected; Effect on fatty acid release induced by group X sPLA2 (human group X sPLA2 [5]): affected neither; Effect on linoleic acid release induced by group V sPLA2 (human group V sPLA2 [6]): not affected
13 | CCc1c(C(=O)C(N)=O)c2c(OCC(=O)O)nc(-c3ccccc3)cn2c1Cc1ccccc1 [Compound 3] | 5 |  | 
14 | CCc1ccc(-c2ccccc2Cc2c(CC)c(C(=O)C(N)=O)c3c(OCC(=O)O)nc(C)cn23)s1 [Compound 21] | 5 |  | 
15 | CCCc1c(C(=O)C(N)=O)c2c(OCC(=O)O)nc(C)cn2c1Cc1ccc(F)cc1 [Compound 15] |  | 17 | 
16 | CCc1c(C(=O)C(N)=O)c2c(OCC(=O)O)nc(C)cn2c1Cc1ccccc1C1CCCC1 [Compound 14] |  | 9 | 
17 | NC(=O)c1cccc2c1c1c(OCC(=O)O)ccc(F)c1n2Cc1ccccc1 [Compound 10] | 7 | 12 | 
18 | NC(=O)C1=CCCc2c1c1c(OCC(=O)O)cccn1c2Cc1ccccc1 [Compound 7] | 2 |  | 
19 | CCc1c(CC(N)=O)c2c(OCC(=O)O)nc(C)cn2c1Cc1ccc(F)cc1 [Compound 13] |  | 19 | 
20 | CCc1c(C(=O)C(N)=O)c2c(OCC(=O)O)nc(C)cn2c1Cc1ccc(-c2ccccc2)cc1 [Compound 12] |  | 16 | 
21 | NC(=O)c1cccc2c1c1c(OCC(=O)O)cccc1n2CC1CCCCC1 [Compound 8] | 3 | 3 | 
